For orientation: IC50 means the concentration needed to halve the response being measured. As a reminder, the inhibition is the share of the control response that was lost under treatment. The solubility is how much of the substance goes into solution per volume.

In brackets after ≈: the same amount, converted by molar mass. Like-named read-outs stand apart in the source and are kept apart here.

Data set [1] has as its system Herpes simplex virus (HSV). Format: cell-based. Here is the method: […]. The cardiac glycosides Digoxin, Digitoxin, Lanoxin and Strophanthin G were also tested.
Using Herpes simplex virus (HSV), 50% plaque inhibitory dose (1D50) were established using the standard plaque inhibition assay. Various solvents were required to facilitate testing and these were sometimes detrimental to tissue culture, depending upon their concentration. […]; experimental conditions in which solvent toxicity was excluded.
(§1) These compounds (Acetazolamide, Tolbutamide and Hydrochiorthiazide) were further tested using alternative solvents in the same test system (ie the plaque inhibition assay) and others (Bumetanide, Torasemide, Tolbutamide and Hydrochlothiazide) in a more sensitive test for ICVT activity in which the effects on virus yields were determined.

In data set [2] the test system is Herpes simplex virus (HSV). The data set can be described thus: HSV virus yield test for ICVT activity. Format: cell-based. Here is the method:
as §1

Data set [3] relates to Herpes simplex virus (HSV). In words: Comparative ICVT-ivities of Digoxin, Digitoxin and Lanoxin. Format: cell-based. The conditions noted are these: for ID50: 250 ug per ml stock solutions, powder in 70% ethanol, Lanoxin in 10% ethanol; for ICVT-ivity of saturated solution compared with standard: saturated solutions in 90% ethanol.
In data set [4] the test system is Adenovirus. In words: 50% plaque inhibitory concentration, Adenovirus in A549. Particulars: unidentified adenovirus.
Data set [5] concerns type 2 herpes simplex strain 3345. The data set can be described thus: Inhibition of HSV2 replication in African green monkey kidney cells (Example 3). Format: cell-based, herpes simplex virus. Particulars: for inhibition at 500 µg/mL / inhibition at 1000 µg/mL: Digoxin 0 mcg/ml, read-out: Inhibition of virus replication; for inhibition at 500 µg/mL: Furosemide 0.5 mg/ml; for inhibition at 1000 µg/mL: Furosemide 1.0 mg/ml; for inhibition at 15 µg/mL: Digoxin 15 mcg/ml; for inhibition at 15 µg/mL / inhibition at 30 µg/mL: Furosemide 0 mg/ml; for inhibition at 30 µg/mL: Digoxin 30 mcg/ml. An excerpt: The compositions were applied to different types of vero cells (African green monkey kidney cells and BHK1 cells) and infected with type 2 herpes simplex virus (strains 3345 and 180) at low, intermediate, and high multiplicities of infection (MOI). Inhibition of virus replication was scored on the scale:
The following results were obtained using African green monkey kidney cells and type 2 herpes simplex strain 3345: […]

Data set [6] relates to Herpes simplex virus. The data set can be described thus: 50% plaque inhibitory concentration, Herpes simplex virus in MRC5.
For data set [7], the system named is Varicella-Zoster virus. In words: 50% plaque inhibitory concentration, Varicella-Zoster virus in MRC5.
A short description of data set [8]: Diffusional release of D and F from Collodions. Format: physicochemical. Here is the method: Drug mix (for composition see table 2) 0.02 g (a stock was made) was weighted on an analytical balance (accurate to 5 decimal places) and added directly to 10 ml of Collodion and 10 ml of ethanol in a McCartney bottle. The molar ratios used were F:D; 1:1, 1:2.5 (2:5) and 1:10 because a smaller amount of drug mix was used, compared to the drug-in-adhesive and this allowed measurable amounts of F to be used. Each of the McCartney bottles was vortexed for three minutes and left to rotate on a blood serum rotator overnight, to ensure that the mixture was homogeneous and that any air bubbles present had dispersed. Control Collodions were also prepared by the same method, however, no drug mix was added.
Different molar ratios of the two drugs were used to determine affect upon release rate and the extent of the release of each drug. The Collodion, 200 μl, was dispensed to the bottom of general 7 ml glass screw cap vials using a Gilson Pipette and left to dry for three hours. Then 2 ml of dissolution medium, again de-gassed EtOH/water 10:90, was added to each vial. The amount of receptor phase sampled and replenished was 200 μl, with a total of five replicates performed for each treatment.
The injection volume of each sample was 20 μl. […] Data were acquired using Agilent software.

For data set [9], the system named is Cytomegalovirus. In words: 50% plaque inhibitory concentration, Cytomegalovirus in MRC5.
For data set [10] the following is noted: cited from earlier work.
Data set [11] has as its system MRC5 cells. In words: MRC5 cell replication. Particulars: Furosemide 1.0 mg/ml; Digoxin 0.05 ug/ml; both at VZV ID50 concentrations; 72 hours.
Data set [12] can be described thus: Drug release from Glue 1 mass-ratio patches into mobile phase.
For data set [13] the following is noted: patches F:D 1:1 across pig skin.
Description: The ears were washed under running water and full-thickness dorsal skin was separated from the cartilage via blunt dissection using a scalpel, then hair was removed using an electric razor. The skin was cut into samples of approximately 2 cm^2 and visually inspected to ensure that each piece was free from abrasions and blood vessels. Specimens were then stored in a crease free state on aluminium foil at −20° C. until required.
The skin samples were removed from the freezer and left to fully defrost. The donor and receptor compartments of Franz-type diffusion cells (see FIG. 13) were greased, to provide a tight seal and prevent any leakage from the receptor phase. The polymer-lined paper was removed from the patches to expose one side and firmly pressed centrally onto the surface of each piece of skin. After adhesion was established, the skin was mounted onto the flange of a receptor compartment (nominal volume 2.5 ml) of the diffusion sell, ensuring that the patch was placed directly over the flange aperture. […]
D and F were detected using an ultraviolet (UV) detector set at wavelength 220 nm. […]
Chromatogram peaks were integrated manually, and the data corrected for dilution effects. Cumulative release was determined and plotted against the square route of time to determine release rates. Cumulative permeation data were determined and plotted against time to order to obtain flux. […]
Data set [14] in a line: Diffusional release of D and F from drug-in-adhesive patches. The data set is classed as physicochemical.
A short description of data set [15]: Drug permeation through porcine ear skin (Franz diffusion cells).
Data set [16] has as its system MRC5 cells. The conditions noted are these: uninfected cells; drug(s) at VZV ID 50 concentrations.
For data set [17], the system named is Varicella Zoster Virus (Ellen strain).
For data set [18], the system named is feline herpesvirus.
In data set [19] the test system is MRC5 cells. The data set can be described thus: MRC5 cell morphology (phase contrast microscopy). The conditions noted are these: Furosemide 1.0 mg/ml; Digoxin 0.05 ug/ml; combined dosage at individual ID 50; 72 hours.
For data set [20] the following is noted: 72 hours.
Description: The receptor fluid was stirred continuously to ensure a homogenous receptor solution.
The drug that accumulated in the skin was also measured. The drug that was present in a 2 cm diameter cross section of skin was calculated for all four formulations.
The nature of data set [21]: Solubility of the drugs in a range of solvents.
Description: A study was performed that measure the solubility of the drugs in a range of solvents.
[22] abbreviates: Human alphaherpesvirus 2, HIGH MOI HSV2.
[23] abbreviates: Human alphaherpesvirus 2, INT. MOI HSV2.
The mark [24] stands for this setting: Human alphaherpesvirus 2, LOW MOI HSV2.
[25] abbreviates: Human alphaherpesvirus 2, read-out: Inhibition of virus replication, HIGH MOI HSV2.
The mark [26] stands for this setting: Human alphaherpesvirus 2, read-out: Inhibition of virus replication, LOW MOI HSV2.

Take `NS(=O)(=O)c1cc2c(cc1Cl)NCNS2(=O)=O` [Hydrochiorothiazide, Hydrochlorothiazide]: the “ICVT activity (in words)” value in [1] (HSV plaque inhibition assay) was “borderline”. Besides, the “concentration at which HSV yield reduced to zero” value in data set [2] (Solvent: NaOH 1% aqueous 10 mg/ml) is “HSV yield reduced to zero at 600 ug/ml”.
For the compound `CC(=O)Nc1nnc(S(N)(=O)=O)s1` [Acetazolamide], the “ICVT activity (in words)” value in [1] (HSV plaque inhibition assay) is “borderline”.
In the case of `Cc1cccc(Nc2ccncc2S(=O)(=O)NC(=O)NC(C)C)c1` [Torasemide], the HSV yield result in [2] (at 90 μg/ml, Solvent: NaOH 1% aqueous 5 mg/ml) is given as “HSV yield unaffected at 90 μg/ml”.
On to `C[C@@H]1O[C@@H](O[C@H]2C[C@@H](O)[C@]3(CO)[C@H]4[C@H](O)C[C@]5(C)[C@@H](C6=CC(=O)OC6)CC[C@]5(O)[C@@H]4CC[C@]3(O)C2)[C@H](O)[C@H](O)[C@H]1O` [Strophanthin G], for which the “remark on toxicity at the HSV Plaque ID50” value in [1] (1 mg/ml, Solvent: Aqueous) is “Cytotoxic”.
For the compound `C[C@H]1O[C@@H](O[C@H]2[C@@H](O)C[C@H](O[C@H]3[C@@H](O)C[C@H](O[C@H]4CC[C@@]5(C)[C@H](CC[C@@H]6[C@@H]5CC[C@]5(C)[C@@H](C7=CC(=O)OC7)CC[C@]65O)C4)O[C@@H]3C)O[C@@H]2C)C[C@H](O)[C@@H]1O` [Digitoxin], in data set [1] (HSV plaque inhibition assay), the “ICVT activity (in words)” value is reported as “potent ICVT activity”. Besides, in data set [3], the ID50 was 30 ng per ml and the “ICVT-ivity of saturated solution compared with standard” value was “more effective than Digoxin”.
`NS(=O)(=O)c1cc(C(=O)O)c(NCc2ccco2)cc1Cl` [Furosemide, 4-chloro-N-furfuryl-5-sulfamoylanthranilic acid]: the IC50 came out at 300 µg/mL (≈ 907 µM) in data set [4] (A549, read-out: Furosemide IC50); 600 µg/mL (≈ 1810 µM) in data set [6] (MRC5, read-out: Furosemide IC50); 500 µg/mL (≈ 1510 µM) in data set [7] (Human alphaherpesvirus 3, MRC5, read-out: Furosemide IC50); 600 µg/mL (≈ 1810 µM) in data set [9] (Human betaherpesvirus 5, MRC5, read-out: Furosemide IC50). Also, the figures for the inhibition at 500 µg/mL in [5] (setting [22]), in data set [5] (setting [23]) and in [5] (setting [24]) were 0%, 20% and 20%, respectively. The inhibition at 1000 µg/mL in [5] (setting [22]) worked out at 40%; in data set [5] (setting [23]) it was 60%; in data set [5] (setting [24]) it was 60%. Further, in data set [1] (HSV plaque inhibition assay), the “ICVT activity (in words)” value was “potent ICVT activity”. The “Maximal dose released (furosemide)” value in [8] (from Collodion after 48 hr) was around 6.02 μg cm^−2.
Turning to `C[C@H]1O[C@@H](O[C@H]2[C@@H](O)C[C@H](O[C@H]3[C@@H](O)C[C@H](O[C@H]4CC[C@@]5(C)[C@H](CC[C@@H]6[C@@H]5C[C@@H](O)[C@]5(C)[C@@H](C7=CC(=O)OC7)CC[C@]65O)C4)O[C@@H]3C)O[C@@H]2C)C[C@H](O)[C@@H]1O` [Digoxin], the solubility entry was “slightly soluble” in data set [10] (in diluted (50%) alcohol and in chloroform); “freely soluble” in data set [10] (in pyridine); “practically insoluble” in data set [10] (in water and in ether); 8200 µg/mL (≈ 10500 µM) in data set [21] (Solvent Methanol); 5080 µg/mL (≈ 6500 µM) in [21] (organic solvent or mixture, Solubility, Solvent Ethanol); 20400 µg/mL (≈ 26100 µM) in [21] (organic solvent or mixture, Solubility, Solvent Ethyl acetate). The “uninfected MRC5 cell replication” value in data set [11] was “replicated to normal yields”. The “permeation coefficient for the patch” value in data set [12] came out at 0.16 ×10⁻⁶ cm/s. Further, the Apparent flux maximum in [13] was found to be 3.499 μgcm^−2 h^−1. This compound registered a Q24 permeation % in data set [13] (% of loading) of 0.12% and a Q24 permeation % (Collodion F:D 1:1 across pig skin, % of loading) of 5.39%. For the same compound, the concentration for half-maximal inhibition (IC50) in data set [4] (A549, read-out: Digixin IC50) was determined as 0.015 µg/mL (≈ 0.0192 µM); in data set [6] (MRC5, read-out: Digixin IC50), 0.025 µg/mL (≈ 0.032 µM); in data set [7] (Human alphaherpesvirus 3, MRC5, read-out: Digixin IC50), 0.05 µg/mL (≈ 0.064 µM); in [9] (Human betaherpesvirus 5, MRC5, read-out: Digixin IC50), 0.02 µg/mL (≈ 0.0256 µM). The inhibition at 15 µg/mL in data set [5] (setting [25]) was 0%; in data set [5] (Human alphaherpesvirus 2, read-out: Inhibition of virus replication, INT. MOI HSV2) it was 0%; in data set [5] (setting [26]), 0%. Further, the inhibition at 30 µg/mL in data set [5] (setting [25]) turned out to be 0%; in data set [5] (setting [26]) it was 60%. For the same compound, in data set [14], the “maximum mass/area of digoxin released (maximal dose)” value was around 136.18 μgcm^−2. Also, the “ICVT activity (in words)” value in [1] is “potent ICVT activity”. For the same compound, in data set [15] (for flux of 1.04 μg per cm^2 per hour (25 μg per day per cm^2)), the loading dose required came to 6004.5 μg per cm^3. In addition, the “initial concentration within the patch for the flux to be greater than zero” value in data set [15] (from plot of patch concentration vs steady state flux through skin) was 804.5 µg/mL. Moreover, the “MRC5 cell metabolism (MTT assay)” value in data set [16] is recorded as “normal levels of metabolism”. Further, in data set [8] (from Collodion after 24 hr), the “maximal dose of digoxin released” value is around 34.01 μg cm^−2. In addition, the inhibition in [17] is around 50%. In data set [18] (Feline herpes virus, drug(s) at IC50, No Drug 50), the “Virus particles per cell” value turned out to be 0.75. In addition, the “remaining low level of virus replication” value in [18] (feline herpesvirus, drug at IC50) was 0.5%. Further, the “production of infectious virus reduced by” value in data set [18] (feline herpesvirus, drug(s) at IC50) was 98.5%. Also, in data set [19], the “effect on MRC5 cell morphology” value was “no adverse effect on cell morphology”. For the same compound, under “Collodion”, the “mass/area that permeated the skin” value was 8.02 μg cm^−2. Moreover, under “Collodion F:D 1:1 across pig skin”, the Apparent maximum flux is 0.313 μgcm^−2 h^−1. Moreover, the AMF (Collodion, calculated between 12-24 hr) is given as 0.313 μg cm^−2 h^−1. Besides, the ID50 in [3] came to 60 ng per ml. Also, in data set [3], the “ICVT-ivity of saturated solution compared with standard” value is “as effective as Lanoxin”. Also, the “concentration at which the skin was saturated” value in [20] worked out at 12.73 μg/cm^2; in [20] (2 cm diameter skin section), 40 ug over 3.14 cm^2.
On to `CCCCNC(=O)NS(=O)(=O)c1ccc(C)cc1` [Tolbutamide], for which the “ICVT activity (in words)” value in data set [1] (HSV plaque inhibition assay) is “borderline”. In addition, the “concentration at which HSV yield reduced to zero” value in [2] (Solvent: PEG 10 mg/ml) and in data set [2] (Solvent: PG 10 mg/ml) was “HSV yield reduced to zero 300 μg/ml” in each case.

Source of the values: patent US20090074845A1, “TRANSDERMAL ACTIVE PRINCIPLE DELIVERY MEANS” (priority 2005, published 2009).
